Legend:
Format in all cases: cell-based
BEAS-2B cells [1] = assay: Cell viability (MTT) assay of bronchial epithelial cells challenged with elastase; conditions: within 24 h of treatment, read-out: IC50 of anti-proliferative activity on bronchial epithelial cells
Procedure: FIG. 3. […] HNE induced cell death after 24 h and this was alleviated by cotreatment with compound 1.
Bronchial epithelial cells (BEAS-2B, ATCC) were grown in bronchial epithelial basal media (BEBM, Lonza) supplemented with bronchial epithelial growth factors (Lonza) under a humidified environment with 5% CO2 at 37° C. BEAS-2B (5,000) cells were seeded in collagen-coated 96-well plates and treated with varying concentrations of elastase after 24 h of seeding. […] The cells were incubated for an additional 24 h before the addition of the MTT reagent. Cell viability was measured according to the manufacturer's instructions (Promega). IC50 calculations were done by GraphPad Prism 5.03 based on duplicate experiments.

sICAM-1 = assay: Measurement of sICAM-1 levels in culture supernatants (AlphaLisa); conditions: elastase-challenged BEAS-2B cells, 6 h, P<0.05
Procedure: A significant difference in expression of fully glycosylated mICAM-1 (˜100 kDa) was observed between the control and elastase treatment, with maximum expression in the former. […] This inverse relationship is consistent with measurements of sICAM-1 levels in the culture supernatants and provided internal validation of the direct effects of elastase with the proteolytic cleavage of ICAM-1.
BEAS-2B cells (60,000) were seeded in collagen-coated 24-well plates. After overnight incubation, the media was replaced with supplement-free media and the cells were further incubated for 24 h. At the end of the incubation period, cells were replenished with new supplement-free media prior to treatment. Stock human neutrophil elastase solution was prepared in sodium acetate and test aliquots were further diluted in supplement-free medium. […] Control cells were treated with DMSO (1%) and sodium acetate in supplement-free medium (4%). The cells were incubated for 6 h. Culture supernatants were collected and sICAM-1 levels were determined using ICAM-1 AlphaLisa® Kit (Perkin Elmer) according to the manufacturer's instruction.

BEAS-2B cells [2] = assay: Morphology of elastase-treated bronchial epithelial cells; conditions: within 2 h of treatment with human neutrophil elastase
Procedure: FIG. 4. Human neutrophil elastase induces changes in morphology of BEAS-2B cells within 2 h of treatment.
An apparent change in cellular morphology of bronchial epithelial cells was observed within 2 h of elastase treatment, with cells becoming rounded, in contrast to the elongated appearance of control cells (FIG. 4). […] These observations indicated intercellular adhesion molecules as a possible direct target of exogenous elastase in bronchial epithelial cells. […] Several proteases have been implicated in the posttranslational modification of membrane-bound ICAM-1 (mICAM-1) to soluble ICAM-1 (sICAM-1), depending on the cell type. In endothelial, fibroblast and astrocyte cultures, sICAM-1 generation is mediated by a matrix metalloprotease or ADAM 17^24.

In the case of “Elastase: human neutrophil elastase used to challenge bronchial epithelial cells”, the IC50 (BEAS-2B cells [1]) is reported as 82 nM.
For `CC(C)(C)C(=O)Oc1ccc(S(=O)(=O)Nc2ccccc2C(=O)NCC(=O)O)cc1` [sivelestat], the “Concentration giving significant decrease of sICAM-1 levels” value (sICAM-1) was 320 nM and the “Effect on elastase-induced change in morphology of BEAS-2B cells” value (BEAS-2B cells [2]) was “reverted”.

Source: patent publication US20150038404A1, “MACROCYCLIC COMPOUNDS” (University of Florida Research Foundation, priority 2012, published 2015)
